Assay results from patent publication US10894038B2, “Indolizine derivatives, composition and methods of use” (Shanghai Fochon Pharmaceutical Co., Ltd., priority 2015, dated 2021).

Columns and labels:
URAT1 = URAT1 (Homo sapiens (Human), UniProt Q96S37); experiment: URAT1 in vitro inhibition activity, Method A (14C-uric acid uptake in HEK293-URAT-4 cells); type: cell-based; details: 50 μM 14C-uric acid, 10 min uptake
Method: The potency of the compounds of formula (I) as inhibitors of the URAT1 was determined as follow.
Cell Lines were generated in WuXi AppTec (HEK293-URAT-4: Stable cell line of HEK293 which was transfected with pcDNA3.1-URAT (Human SLC22A12 cDNA Clone, Abgent-DC07943). HEK293-PCDNA-5: Negative control cell of HEK293 which was transfected with pcDNA3.1 empty vector.
Cells were seeded onto 24-well plates at the density of 2.0×10^5 cells per well. The cells were incubated at 37° C., 5% CO2 overnight. After approximately 24 hours culture, cells were used for uptake experiments. The culture medium were removed from the wells and the cells were incubated in 0.4 ml/well of Hank's balanced salt solution (HBSS) for 10 min. HBSS was replaced with 0.18 ml/well fresh HBSS. Compounds were 5 folds serial diluted in DMSO, and then 25 folds diluted in HBSS. Compounds diluted with HBSS (10 μl) were added to relevant well of cell plates, and plates were incubated at 37° C., 5% CO2 for 15 min. The final concentration of DMSO in the assay was 0.2%. 10 μl HBSS containing radioactively labeled Urate (^14C-uric acid) was added to each well. The final concentration of ^14C-uric acid in the assay medium was 50 μM. After 10 min, the assay medium was immediately removed. The cells were washed quickly with 0.5 ml pre-chilled HBSS twice. 0.1 M NaOH (0.4 ml) was added to lyse the cells for at least 20 min. The cell lysate was collected to a scintillation vial, and scintillant (4 ml) was added and the radioactivity was counted by a liquid scintillation counter. Inhibiton % data were calculated using the formula
[formula] CPD: Signal from a well containing a test compound HC (high control): Average of signals from HEK293-URAT-4 cells LC (low control): Average of signals from HEK293-PCDNA-5.

[1] = tested on: potassium oxonate-induced hyperuricemia in rats; experiment: Effect on potassium oxonate-induced hyperuricemia in rats (serum uric acid); type: in vivo, rat; details: male SD rats, 5 mg/kg oral; for serum uric acid levels, time after dosing 0.5 h: 0.5 h after dosing; for serum uric acid levels, time after dosing 1 h: 1 h after dosing; for serum uric acid levels, time after dosing 2 h: 2 h after dosing; for serum uric acid levels, time after dosing 3 h: 3 h after dosing; for serum uric acid levels, time after dosing 4 h: 4 h after dosing
Method: Healthy male SD rats, weighing 250±20 g, were used. In the experiment, except for 10 rats as normal control group were orally administered with distilled water, the others were orally administered with yeast extract (20 g/kg, qd×5 days). One hour after last administration, all the rats were intraperitoneal injection with 250 mg/kg potassium oxonate while normal control group was treated with an equal volume of 0.5% CMC-Na (injection volume of 2 ml/kg). After one hour, rats were anesthetized with isoflurane and the serum uric acid was determined by uric acid test strip. All the rats were divided into groups by uric acid. The model control group and experimental groups was given orally administration 0.5% CMC-Na or compounds with a dose of 10 ml/kg-bw. Phosphotungstic acid precipitation method was used to detect serum uric acids in inner canthus blood at 0.5, 1, 2, 3, 4 h after administration, respectively. Substantially, observing the effects of compounds on serum uric acids levels and calculating each of groups' AUC and the inhibition of uric acid increased area by the equation as follows: […]
As shown in the equation, AUC0 indicated the AUC of model control group, AUC1 indicated the AUC of therapy group, AUC2 indicated the AUC of normal control group.

Chain of URAT1 (Q96S37 whole entry): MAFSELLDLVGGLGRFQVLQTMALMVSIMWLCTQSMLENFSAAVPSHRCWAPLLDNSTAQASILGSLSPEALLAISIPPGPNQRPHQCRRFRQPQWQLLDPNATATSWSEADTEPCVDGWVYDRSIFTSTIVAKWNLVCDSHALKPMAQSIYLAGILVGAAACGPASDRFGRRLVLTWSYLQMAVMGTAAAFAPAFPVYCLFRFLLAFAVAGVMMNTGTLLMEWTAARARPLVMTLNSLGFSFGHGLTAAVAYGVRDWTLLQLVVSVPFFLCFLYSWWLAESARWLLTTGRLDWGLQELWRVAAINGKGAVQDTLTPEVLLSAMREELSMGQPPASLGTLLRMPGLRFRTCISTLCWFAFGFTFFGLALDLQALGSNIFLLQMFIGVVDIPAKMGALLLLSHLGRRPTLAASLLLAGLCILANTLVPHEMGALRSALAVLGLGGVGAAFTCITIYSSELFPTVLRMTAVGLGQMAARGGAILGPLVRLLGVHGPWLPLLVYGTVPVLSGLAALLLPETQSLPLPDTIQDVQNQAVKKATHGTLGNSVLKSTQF

Row | SMILES | IC50 (URAT1) [nM] | serum uric acid levels, time after dosing 0.5 h [1] [µmol/L] | serum uric acid levels, time after dosing 1 h [1] [µmol/L] | serum uric acid levels, time after dosing 2 h [1] [µmol/L] | serum uric acid levels, time after dosing 3 h [1] [µmol/L] | serum uric acid levels, time after dosing 4 h [1] [µmol/L]
1 | N#Cc1ccc(-c2cnccc2SC2(C(=O)O)CCC2)n2cccc12 [Example 1, 1-((3-(8-Cyanoindolizin-5-yl)pyridin-4-yl)thio)cyclobutane-1-carboxylic acid] | 30 | 492.8 ± 82.4 | 506.0 ± 88.5 | 407.7 ± 100.7 | 343.2 ± 84.3 | 289.8 ± 77.8
2 | N#Cc1ccc(-c2cnccc2SC2(C(=O)O)CCC2)n2cc(C(F)(F)F)cc12 [Example 7, 1-((3-(8-cyano-2-(trifluoromethyl)indolizin-5-yl)pyridin-4-yl)thio)cyclobutane-1-carboxylic acid] | 44 | 485.3 ± 79.3 | 510.0 ± 103.7 | 460.6 ± 87.4 | 381.3 ± 84.3 | 307.9 ± 71.0
3 | CC(C)(Sc1ccncc1-c1ccc(C#N)c2cccn12)C(=O)O [Example 2, 2-((3-(8-cyanoindolizin-5-yl)pyridin-4-yl)thio)-2-methylpropanoic acid] | 66 |  |  |  |  | 
